Results from article PMC7385619, “A triple action CDK4/6-PI3K-BET inhibitor with augmented cancer cell cytotoxicity” (Cell Discovery, 2020).

What was measured:
Experiment in all cases: KINOMEscan assay (Eurofins DiscoverX)
Type in all cases: binding
[1] = target: T1, kinome (kinase panel) (Homo sapiens, UniProt P29323); settings: EPHB2; 1000 nM; read-out: Percent Control
T1 construct: purchased Eurofins DiscoverX

[2] = target: T2, kinome (kinase panel) (Homo sapiens, UniProt Q13470); settings: TNK1; 1000 nM; read-out: Percent Control
T2 construct: purchased Eurofins DiscoverX

[3] = target: T3, kinome (kinase panel) (Homo sapiens, UniProt Q9P1W9); settings: PIM2; 1000 nM; read-out: Percent Control
T3 construct: purchased Eurofins DiscoverX
T3 sequence (Q9P1W9 whole entry): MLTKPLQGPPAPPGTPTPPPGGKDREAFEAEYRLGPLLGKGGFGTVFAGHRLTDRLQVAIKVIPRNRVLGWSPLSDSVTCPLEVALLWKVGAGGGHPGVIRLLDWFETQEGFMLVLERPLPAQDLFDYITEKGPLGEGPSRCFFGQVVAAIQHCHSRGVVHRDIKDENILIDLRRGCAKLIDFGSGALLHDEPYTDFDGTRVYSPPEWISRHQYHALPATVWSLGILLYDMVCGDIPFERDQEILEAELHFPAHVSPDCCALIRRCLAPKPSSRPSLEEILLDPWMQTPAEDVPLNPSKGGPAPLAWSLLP

[4] = target: T4, kinome (kinase panel) (Homo sapiens, UniProt P08581, M1250T); settings: […]; 1000 nM; read-out: Percent Control
T4 construct: purchased Eurofins DiscoverX

[5] = target: T5, kinome (kinase panel) (Homo sapiens, UniProt Q00532); settings: CDKL1; 1000 nM; read-out: Percent Control
T5 construct: purchased Eurofins DiscoverX

[6] = target: T6, kinome (kinase panel) (Homo sapiens, UniProt P22607); settings: FGFR3; 1000 nM; read-out: Percent Control
T6 construct: purchased Eurofins DiscoverX

[7] = target: T7, kinome (kinase panel) (Homo sapiens, UniProt O95382); settings: ASK2 (Entrez MAP3K6); 1000 nM; read-out: Percent Control
T7 construct: purchased Eurofins DiscoverX

[8] = target: T8, kinome (kinase panel) (Homo sapiens, UniProt P42336, I800L); settings: read-out: Percent Control
T8 construct: purchased Eurofins DiscoverX

[9] = target: T9, kinome (kinase panel) (Homo sapiens, UniProt Q96J92); settings: WNK4; 1000 nM; read-out: Percent Control
T9 construct: purchased Eurofins DiscoverX
T9 sequence (Q96J92 whole entry): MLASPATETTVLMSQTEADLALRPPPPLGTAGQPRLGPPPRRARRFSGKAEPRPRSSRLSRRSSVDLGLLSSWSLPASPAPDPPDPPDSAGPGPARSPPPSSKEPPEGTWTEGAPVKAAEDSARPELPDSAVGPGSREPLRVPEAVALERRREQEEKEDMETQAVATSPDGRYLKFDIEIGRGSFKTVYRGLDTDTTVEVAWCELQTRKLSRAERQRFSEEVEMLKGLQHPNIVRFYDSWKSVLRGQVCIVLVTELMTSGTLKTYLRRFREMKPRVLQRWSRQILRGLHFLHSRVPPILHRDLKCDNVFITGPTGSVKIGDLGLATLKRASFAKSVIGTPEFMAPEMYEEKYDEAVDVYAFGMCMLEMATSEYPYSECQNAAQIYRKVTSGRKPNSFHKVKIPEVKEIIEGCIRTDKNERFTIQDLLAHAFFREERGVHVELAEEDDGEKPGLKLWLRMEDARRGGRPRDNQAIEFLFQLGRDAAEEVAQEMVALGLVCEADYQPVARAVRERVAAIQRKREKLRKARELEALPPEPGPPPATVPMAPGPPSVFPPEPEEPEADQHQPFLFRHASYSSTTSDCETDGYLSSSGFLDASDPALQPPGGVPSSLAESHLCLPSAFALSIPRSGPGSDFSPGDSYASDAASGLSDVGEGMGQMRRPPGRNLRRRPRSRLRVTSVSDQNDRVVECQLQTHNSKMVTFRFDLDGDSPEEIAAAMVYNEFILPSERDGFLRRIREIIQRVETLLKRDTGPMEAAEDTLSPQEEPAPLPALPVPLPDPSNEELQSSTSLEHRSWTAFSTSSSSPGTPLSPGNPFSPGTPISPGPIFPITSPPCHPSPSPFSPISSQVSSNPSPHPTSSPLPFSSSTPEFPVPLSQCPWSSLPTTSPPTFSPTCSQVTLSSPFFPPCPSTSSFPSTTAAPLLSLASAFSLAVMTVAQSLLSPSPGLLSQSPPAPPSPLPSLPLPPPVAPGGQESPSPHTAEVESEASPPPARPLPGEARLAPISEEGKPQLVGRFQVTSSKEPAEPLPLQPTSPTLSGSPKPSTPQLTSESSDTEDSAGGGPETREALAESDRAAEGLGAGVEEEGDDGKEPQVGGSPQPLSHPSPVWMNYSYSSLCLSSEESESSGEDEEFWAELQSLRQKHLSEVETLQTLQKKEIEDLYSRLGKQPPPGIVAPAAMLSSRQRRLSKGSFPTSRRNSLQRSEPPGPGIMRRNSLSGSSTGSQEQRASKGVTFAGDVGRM

[10] = target: T10, kinome (kinase panel) (Homo sapiens, UniProt Q15303); settings: ERBB4; 1000 nM; read-out: Percent Control
T10 construct: purchased Eurofins DiscoverX

[11] = target: T11, kinome (kinase panel) (Homo sapiens, UniProt Q96SB4); settings: SRPK1; 1000 nM; read-out: Percent Control
T11 construct: purchased Eurofins DiscoverX

[12] = target: T12, kinome (kinase panel) (Homo sapiens, UniProt Q13554); settings: CAMK2B; 1000 nM; read-out: Percent Control
T12 construct: purchased Eurofins DiscoverX

[13] = target: T13, kinome (kinase panel) (Homo sapiens, UniProt Q12866); settings: MERTK; 1000 nM; read-out: Percent Control
T13 construct: purchased Eurofins DiscoverX

[14] = target: T14, kinome (kinase panel) (Homo sapiens, UniProt P49759); settings: CLK1; 1000 nM; read-out: Percent Control
T14 construct: purchased Eurofins DiscoverX
T14 sequence (P49759 whole entry): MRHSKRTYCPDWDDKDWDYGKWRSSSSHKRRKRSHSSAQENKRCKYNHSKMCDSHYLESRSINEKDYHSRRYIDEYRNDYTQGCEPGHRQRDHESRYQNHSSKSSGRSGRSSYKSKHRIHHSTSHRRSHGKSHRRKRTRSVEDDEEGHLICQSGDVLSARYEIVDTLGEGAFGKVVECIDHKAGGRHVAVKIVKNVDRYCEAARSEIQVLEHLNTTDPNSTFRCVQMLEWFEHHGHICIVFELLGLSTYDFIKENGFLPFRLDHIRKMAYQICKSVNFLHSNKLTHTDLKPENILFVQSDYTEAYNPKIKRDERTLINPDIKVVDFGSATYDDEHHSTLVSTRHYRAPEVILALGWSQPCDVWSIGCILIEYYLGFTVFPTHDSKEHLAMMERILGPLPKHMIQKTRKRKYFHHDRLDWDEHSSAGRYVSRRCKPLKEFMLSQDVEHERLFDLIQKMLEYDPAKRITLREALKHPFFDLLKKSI

[15] = target: T15, kinome (kinase panel) (Homo sapiens, UniProt P35968); settings: VEGFR2 (KDR); 1000 nM; read-out: Percent Control
T15 construct: purchased Eurofins DiscoverX

[16] = target: T16, kinome (kinase panel) (Homo sapiens, UniProt Q8NE63); settings: HIPK4; 1000 nM; read-out: Percent Control
T16 construct: purchased Eurofins DiscoverX

[17] = target: T17, kinome (kinase panel) (Homo sapiens, UniProt O00238); settings: BMPR1B; 1000 nM; read-out: Percent Control
T17 construct: purchased Eurofins DiscoverX
T17 sequence (O00238 14-502): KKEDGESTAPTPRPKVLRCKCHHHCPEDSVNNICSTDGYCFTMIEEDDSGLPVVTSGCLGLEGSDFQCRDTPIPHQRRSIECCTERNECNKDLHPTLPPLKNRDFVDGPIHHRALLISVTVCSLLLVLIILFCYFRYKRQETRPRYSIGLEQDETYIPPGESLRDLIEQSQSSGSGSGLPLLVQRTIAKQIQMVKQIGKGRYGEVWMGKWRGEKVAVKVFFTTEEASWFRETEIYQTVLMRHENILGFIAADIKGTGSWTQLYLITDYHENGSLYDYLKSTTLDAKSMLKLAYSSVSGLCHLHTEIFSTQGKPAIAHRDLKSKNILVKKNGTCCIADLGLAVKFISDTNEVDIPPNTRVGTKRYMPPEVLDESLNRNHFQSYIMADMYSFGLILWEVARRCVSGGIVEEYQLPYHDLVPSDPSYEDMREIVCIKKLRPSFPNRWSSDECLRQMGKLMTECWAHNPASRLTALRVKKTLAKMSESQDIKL

[18] = target: T18, kinome (kinase panel) (Homo sapiens, UniProt Q16513); settings: PKN2; 1000 nM; read-out: Percent Control
T18 construct: purchased Eurofins DiscoverX

[19] = target: T19, kinome (kinase panel) (Homo sapiens, UniProt P00533, L858R); settings: […]; 1000 nM; read-out: Percent Control
T19 construct: purchased Eurofins DiscoverX

[20] = target: T20, kinome (kinase panel) (Homo sapiens, UniProt Q8TD08); settings: ERK8 (Entrez MAPK15); 1000 nM; read-out: Percent Control
T20 construct: purchased Eurofins DiscoverX

[21] = target: T21, kinome (kinase panel) (Homo sapiens, UniProt Q9UHD2); settings: TBK1; 1000 nM; read-out: Percent Control
T21 construct: purchased Eurofins DiscoverX
T21 sequence (Q9UHD2 whole entry): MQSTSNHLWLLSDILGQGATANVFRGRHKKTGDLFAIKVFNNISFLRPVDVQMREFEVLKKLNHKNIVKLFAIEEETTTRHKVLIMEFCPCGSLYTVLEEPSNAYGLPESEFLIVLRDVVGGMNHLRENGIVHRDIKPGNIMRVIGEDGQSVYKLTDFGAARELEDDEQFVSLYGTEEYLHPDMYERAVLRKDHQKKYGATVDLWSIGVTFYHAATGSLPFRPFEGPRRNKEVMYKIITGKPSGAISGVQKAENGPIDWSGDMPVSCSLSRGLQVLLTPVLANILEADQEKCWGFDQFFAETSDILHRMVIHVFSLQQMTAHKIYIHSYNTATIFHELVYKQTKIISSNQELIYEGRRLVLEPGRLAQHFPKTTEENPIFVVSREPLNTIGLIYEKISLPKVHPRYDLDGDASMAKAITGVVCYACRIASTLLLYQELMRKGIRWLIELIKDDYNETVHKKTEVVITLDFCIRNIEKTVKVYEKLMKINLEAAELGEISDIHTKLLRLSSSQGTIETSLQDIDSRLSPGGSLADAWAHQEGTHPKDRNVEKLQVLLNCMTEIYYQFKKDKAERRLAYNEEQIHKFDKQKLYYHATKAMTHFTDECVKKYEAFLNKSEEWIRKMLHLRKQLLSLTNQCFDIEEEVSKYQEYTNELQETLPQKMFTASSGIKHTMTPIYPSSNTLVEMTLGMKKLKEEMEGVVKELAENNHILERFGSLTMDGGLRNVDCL

[22] = target: T22, kinome (kinase panel) (Homo sapiens, UniProt P42684); settings: ABL2; 1000 nM; read-out: Percent Control
T22 construct: purchased Eurofins DiscoverX
T22 sequence (P42684 whole entry): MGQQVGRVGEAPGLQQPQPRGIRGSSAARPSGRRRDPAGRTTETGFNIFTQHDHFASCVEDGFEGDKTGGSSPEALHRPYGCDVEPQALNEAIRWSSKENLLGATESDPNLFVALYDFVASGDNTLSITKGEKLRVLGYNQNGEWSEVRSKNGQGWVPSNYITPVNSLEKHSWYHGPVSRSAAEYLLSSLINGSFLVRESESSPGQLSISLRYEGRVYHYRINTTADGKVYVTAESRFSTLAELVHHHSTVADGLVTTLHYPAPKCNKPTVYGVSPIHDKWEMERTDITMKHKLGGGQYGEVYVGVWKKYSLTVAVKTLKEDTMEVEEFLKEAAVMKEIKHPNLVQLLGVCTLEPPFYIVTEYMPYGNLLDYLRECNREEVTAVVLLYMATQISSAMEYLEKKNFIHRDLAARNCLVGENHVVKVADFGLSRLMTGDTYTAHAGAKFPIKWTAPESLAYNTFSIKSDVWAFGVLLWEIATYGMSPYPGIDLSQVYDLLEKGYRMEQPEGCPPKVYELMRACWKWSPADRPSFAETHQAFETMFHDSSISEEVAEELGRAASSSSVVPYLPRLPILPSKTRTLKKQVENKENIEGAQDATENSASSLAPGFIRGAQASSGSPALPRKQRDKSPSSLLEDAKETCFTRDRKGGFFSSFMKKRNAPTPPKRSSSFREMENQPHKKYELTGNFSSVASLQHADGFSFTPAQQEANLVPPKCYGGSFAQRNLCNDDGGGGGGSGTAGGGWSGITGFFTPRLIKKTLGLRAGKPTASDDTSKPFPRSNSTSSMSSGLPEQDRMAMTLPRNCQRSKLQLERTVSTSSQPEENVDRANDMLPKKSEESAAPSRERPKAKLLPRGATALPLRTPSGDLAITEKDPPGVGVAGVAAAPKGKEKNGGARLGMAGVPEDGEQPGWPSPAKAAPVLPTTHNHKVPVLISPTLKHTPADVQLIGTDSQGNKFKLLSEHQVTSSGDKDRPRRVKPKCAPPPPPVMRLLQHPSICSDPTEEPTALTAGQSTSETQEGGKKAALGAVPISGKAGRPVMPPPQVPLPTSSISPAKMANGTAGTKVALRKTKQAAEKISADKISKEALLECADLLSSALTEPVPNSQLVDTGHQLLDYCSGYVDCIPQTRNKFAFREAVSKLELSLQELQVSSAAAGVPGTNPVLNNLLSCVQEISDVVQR

[23] = target: T23, kinome (kinase panel) (Homo sapiens, UniProt P48729); settings: CSNK1A1; 1000 nM; read-out: Percent Control
T23 construct: purchased Eurofins DiscoverX

[24] = target: T24, kinome (kinase panel) (Homo sapiens, UniProt P54756); settings: EPHA5; 1000 nM; read-out: Percent Control
T24 construct: purchased Eurofins DiscoverX

[25] = target: T25, kinome (kinase panel) (Homo sapiens, UniProt P42336); settings: PIK3CA; 1000 nM; read-out: Percent Control
T25 construct: purchased Eurofins DiscoverX

[26] = target: T26, kinome (kinase panel) (Homo sapiens, UniProt Q8N4C8); settings: MINK (Entrez MINK1); 1000 nM; read-out: Percent Control
T26 construct: purchased Eurofins DiscoverX

[27] = target: T27, kinome (kinase panel) (Homo sapiens, UniProt P50750); settings: CDK9; 1000 nM; read-out: Percent Control
T27 construct: purchased Eurofins DiscoverX

[28] = target: T28, kinome (kinase panel) (Homo sapiens, UniProt Q04759); settings: PRKCQ; 1000 nM; read-out: Percent Control
T28 construct: purchased Eurofins DiscoverX

[29] = target: T29, kinome (kinase panel) (Homo sapiens, UniProt Q9NY57); settings: YANK2 (STK32B); 1000 nM; read-out: Percent Control
T29 construct: purchased Eurofins DiscoverX

[30] = target: T30, kinome (kinase panel) (Homo sapiens, UniProt Q9NYY3); settings: PLK2; 1000 nM; read-out: Percent Control
T30 construct: purchased Eurofins DiscoverX

[31] = target: T31, kinome (kinase panel) (Homo sapiens, UniProt Q9Y6E0); settings: MST3 (Entrez STK24); 1000 nM; read-out: Percent Control
T31 construct: purchased Eurofins DiscoverX
T31 sequence (Q9Y6E0 whole entry): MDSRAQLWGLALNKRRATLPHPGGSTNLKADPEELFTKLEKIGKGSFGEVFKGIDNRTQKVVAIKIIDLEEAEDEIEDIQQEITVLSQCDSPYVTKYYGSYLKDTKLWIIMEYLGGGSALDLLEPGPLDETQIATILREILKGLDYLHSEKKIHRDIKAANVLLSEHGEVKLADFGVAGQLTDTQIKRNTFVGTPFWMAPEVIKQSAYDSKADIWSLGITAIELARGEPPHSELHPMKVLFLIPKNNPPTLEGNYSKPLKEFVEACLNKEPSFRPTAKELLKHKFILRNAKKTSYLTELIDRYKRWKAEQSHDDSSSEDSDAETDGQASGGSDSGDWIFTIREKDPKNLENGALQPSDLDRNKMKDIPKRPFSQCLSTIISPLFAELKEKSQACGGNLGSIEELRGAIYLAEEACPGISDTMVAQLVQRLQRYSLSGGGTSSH

[32] = target: T32, kinome (kinase panel) (Homo sapiens, UniProt Q92630); settings: DYRK2; 1000 nM; read-out: Percent Control
T32 construct: purchased Eurofins DiscoverX

[33] = target: T33, kinome (kinase panel) (Homo sapiens, UniProt Q86Z02); settings: HIPK1; 1000 nM; read-out: Percent Control
T33 construct: purchased Eurofins DiscoverX

SMILES: CN(C)C(=O)c1cc2cnc(Nc3ccc(-c4csc5c(=O)cc(N6CCOCC6)oc45)cc3)nc2n1C1CCCC1 [SRX3177]
- remaining binding at 1 µM [1]: 97%
- remaining binding at 1 µM [2]: 57%
- remaining binding at 1 µM [3]: 100%
- remaining binding at 1 µM [4]: 86%
- remaining binding at 1 µM [5]: 96%
- remaining binding at 1 µM [6]: 71%
- remaining binding at 1 µM [7]: 91%
- remaining binding at 1 µM [8]: 8.9%
- remaining binding at 1 µM [9]: 90%
- remaining binding at 1 µM [10]: 100%
- remaining binding at 1 µM [11]: 22%
- remaining binding at 1 µM [12]: 82%
- remaining binding at 1 µM [13]: 86%
- remaining binding at 1 µM [14]: 100%
- remaining binding at 1 µM [15]: 87%
- remaining binding at 1 µM [16]: 79%
- remaining binding at 1 µM [17]: 19%
- remaining binding at 1 µM [18]: 70%
- remaining binding at 1 µM [19]: 100%
- remaining binding at 1 µM [20]: 81%
- remaining binding at 1 µM [21]: 16%
- remaining binding at 1 µM [22]: 81%
- remaining binding at 1 µM [23]: 83%
- remaining binding at 1 µM [24]: 100%
- remaining binding at 1 µM [25]: 72%
- remaining binding at 1 µM [26]: 77%
- remaining binding at 1 µM [27]: 2.4%
- remaining binding at 1 µM [28]: 73%
- remaining binding at 1 µM [29]: 100%
- remaining binding at 1 µM [30]: 86%
- remaining binding at 1 µM [31]: 93%
- remaining binding at 1 µM [32]: 69%
- remaining binding at 1 µM [33]: 86%
